This is an account of results in US7250433B2, “Tetrazole and oxadiazolone substituted β-amino acid derivatives” (Warner Lambert Company LLC, priority 2003, dated 2007).

As a reminder, the melting point is the temperature, or range, at which the solid turns liquid.

On to `CC(CC1CCCC1)C(CN)c1nnn[nH]1` (stereo not drawn), for which the melting point is 194 °C (dec.).
Under `CC(CC1CCCCC1)C(CN)c1nnn[nH]1` (stereo not drawn) stands 216 °C (dec.); under `CC(CCc1ccccc1)C(CN)c1nnn[nH]1` (stereo not drawn), 152 °C (dec.); under `CC(C)CC1CC1(CN)c1noc(=O)[nH]1.Cl` (stereo not drawn), 181 to 182 °C.
`CC(C)CCC[C@@H](C)CCC(CN)c1nnn[nH]1` (stereo partly drawn): the melting point was 185 °C (dec.).
The result for `Cl.NCC1(c2noc(=O)[nH]2)CC12CCCC2` (stereo not drawn) reads 206 to 208 °C; that for `CC(C)C1CC1(CN)C(=O)O.Cl` (stereo not drawn), 245 to 246 °C; that for `NCC(CC1CCCCC1)c1nnn[nH]1` (stereo not drawn), > 250 °C (dec.).
In the case of `CC(Cc1cccc(C(F)(F)F)c1)C(CN)c1nnn[nH]1` (stereo not drawn), the melting point was 163 °C (dec.).
Under `CC(C)C(C)C(CN)c1nnn[nH]1` (stereo not drawn) stands > 250 °C (dec.); under `Cl.NCC1(c2noc(=O)[nH]2)CC12CCCCC2` (stereo not drawn), 179 to 181 °C (dec.).
Under `CCC(CC)C1CC1(CN)c1nnn[nH]1` (stereo not drawn) stands > 250 °C (dec.).
With `CCC(C(C)C)C(CN)c1nnn[nH]1` (stereo not drawn), the melting point was 205 °C (dec.).
For `CC(Cc1ccc(F)cc1)C(CN)c1nnn[nH]1` (stereo not drawn) [Example 26, 4-(4-Fluoro-phenyl)-3-methyl-2-(1H-tetrazol-5-yl)-butylamine], the melting point is 186 °C (dec.).
For the molecule `CC(C)C1CC1(CN)c1nnn[nH]1` (stereo not drawn), the melting point is > 250 °C (dec.).
Regarding `CC(C)CC1CC1(CN)C(=O)O.Cl` (stereo not drawn), the melting point is 254 to 255 °C.
The result for `NCC1(C(=O)O)CC12CCCC2` (stereo not drawn) reads 231 to 235 °C (dec.); that for `CC(C)C1CC1(CN)c1noc(=O)[nH]1.Cl` (stereo not drawn), 178 to 179 °C.
